Test results as given in PMC7403315, “Cyclic peptide FXII inhibitor provides safe anticoagulation in a thrombosis model and in artificial lungs” (Nature Communications, 2020).
Values joined by “and” are separate entries in the source; they are usually repeats but may differ in a detail not shown here. Identical values can stand only once. Blank lines part the entries; values can stand above or below the molecule they belong to. Starred links: 1 amine or outer side, 2 acyl side, 3 side chain; linkers in the order of their positions; H or OH if unused. Positions of bridges follow the written chain, without caps; N, C: chain ends. Non-standard residues stand in square brackets, D forms with d. Residues, ends and D or L forms follow the SMILES beside them. TATA = O=C(CC[*:1])N1CN(C(=O)CC[*:2])CN(C(=O)CC[*:3])C1; Phe(4-F) = N[C@@H](Cc1ccc(F)cc1)C(=O)O; β3hR = N=C(N)NCCC[C@H](N)CC(=O)O

Key:
Type in all cases: biochemical
Recombinant mouse FXII = molecular target: T1, Recombinant mouse FXII (Mus musculus, UniProt Q80YC5); assay: Inhibition of recombinant FXIIa (rFXIIa); settings: individual plates
T1 sequence (Q80YC5 355-597 limits assumed): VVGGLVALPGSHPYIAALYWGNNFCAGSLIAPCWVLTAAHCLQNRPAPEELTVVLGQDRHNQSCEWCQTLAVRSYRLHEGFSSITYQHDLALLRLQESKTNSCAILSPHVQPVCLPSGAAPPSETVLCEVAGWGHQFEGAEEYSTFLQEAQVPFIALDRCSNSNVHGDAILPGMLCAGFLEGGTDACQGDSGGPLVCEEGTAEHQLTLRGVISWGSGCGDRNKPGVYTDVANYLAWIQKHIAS
T1 sequence (Q80YC5 20-354 limits assumed): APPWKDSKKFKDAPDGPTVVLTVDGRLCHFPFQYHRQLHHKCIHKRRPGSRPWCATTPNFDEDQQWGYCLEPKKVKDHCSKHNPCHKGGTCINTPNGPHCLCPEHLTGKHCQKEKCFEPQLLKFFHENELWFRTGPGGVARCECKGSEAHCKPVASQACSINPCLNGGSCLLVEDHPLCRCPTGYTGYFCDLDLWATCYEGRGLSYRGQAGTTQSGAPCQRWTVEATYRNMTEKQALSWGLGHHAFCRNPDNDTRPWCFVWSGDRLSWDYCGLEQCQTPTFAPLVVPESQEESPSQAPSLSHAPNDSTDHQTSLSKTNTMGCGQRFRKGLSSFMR

plasmin = molecular target: T2, plasmin (Homo sapiens, UniProt P00747); assay: Specificity profiling, residual protease activity
T2 construct: nM, thrombin (Molecular Innovations) 1 nM, plasmin (Molecular Innovations) 2.5 nM, trypsin; purchased Molecular Innovations
T2 sequence (P00747 581-810 limits assumed): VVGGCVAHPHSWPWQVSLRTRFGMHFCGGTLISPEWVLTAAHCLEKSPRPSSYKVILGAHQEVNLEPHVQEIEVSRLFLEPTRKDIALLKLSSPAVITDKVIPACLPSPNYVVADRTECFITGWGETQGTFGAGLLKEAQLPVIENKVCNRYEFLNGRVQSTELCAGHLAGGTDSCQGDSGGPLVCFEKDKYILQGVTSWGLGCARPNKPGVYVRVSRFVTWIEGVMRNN
T2 sequence (P00747 97-580 limits assumed): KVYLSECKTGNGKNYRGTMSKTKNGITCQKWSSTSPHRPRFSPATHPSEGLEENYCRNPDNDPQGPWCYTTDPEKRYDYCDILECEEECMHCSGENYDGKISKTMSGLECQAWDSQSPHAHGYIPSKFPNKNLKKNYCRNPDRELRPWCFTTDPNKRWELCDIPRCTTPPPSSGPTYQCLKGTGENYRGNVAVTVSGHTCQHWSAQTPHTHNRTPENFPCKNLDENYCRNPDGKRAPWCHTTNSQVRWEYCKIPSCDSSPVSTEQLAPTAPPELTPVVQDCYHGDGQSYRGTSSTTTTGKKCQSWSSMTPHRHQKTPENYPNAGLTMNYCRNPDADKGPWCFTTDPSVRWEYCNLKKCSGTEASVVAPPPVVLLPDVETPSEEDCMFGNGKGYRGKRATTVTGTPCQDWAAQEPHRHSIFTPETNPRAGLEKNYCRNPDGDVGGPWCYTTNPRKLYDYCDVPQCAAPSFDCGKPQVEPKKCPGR
Protocol: (§1) Protease inhibition assays
(§2) The inhibitory activity of peptides was determined by measuring the residual protease activity with a fluorogenic substrate. The assay was performed in buffer containing 10 mM Tris-Cl, pH […]
(§3) 1% (v/v) DMSO in a volume of 150 µl. […]
(§4) HFXIIAB) were used at final concentrations of 0.4 nM. The reaction was pipetted as follows: 50 µl of bicyclic peptide in assay buffer were added to 50 µl of FXIIa in assay buffer and incubated for 10 minutes at 25°C before 50 µl of 150 µM fluorogenic substrate in assay buffer were added to measure the residual protease activity with an Infinite M200Pro fluorescence plate reader (excitation at 368 nm, emission at 467 nm; Tecan) for a period of 30 minutes with a read every minute at 25°C. The Tecan software i-control (version 1.1) was used for data analysis. Stock solutions of 1 mM bicyclic peptide were prepared by either dissolving the unpurified cyclization reaction with water or by dissolving purified and lyophilized peptide in water. The bicyclic peptides were serially diluted two-fold using assay buffer. Sigmoidal curves were fitted to the data using the following dose response equation (1), wherein x = peptide concentration, y = % protease activity, and p = Hill slope. IC50 values were derived from the fitted curve.
(§5) The inhibition constants (Ki) were calculated according to the equation of Cheng and Prusoff, Ki = IC50/(1+([S]0/Km), wherein IC50 is the functional strength of the inhibitor, [S]0 is the total substrate concentration, and Km is the Michaelis-Menten constant. […]
(§6) For testing the specificity of the bicyclic peptides, the following final concentrations of human serine proteases were used: tPA (Molecular Innovations) 7.5 nM, uPA (Molecular Innovations) 1.5 nM, factor XIa (Innovative Research) 6 nM, plasma kallikrein (Innovative Research) 0.25 nM, thrombin (Molecular Innovations) 1 nM, plasmin (Molecular Innovations) 2.5 nM, trypsin (Molecular Innovations) 0.05 nM, factor VIIa (Haematologic Technologies) 50 nM, factor Xa […]
(§7) (Haematologic Technologies) 6 nM, and activated protein C (APC) 5 nM. Two-fold dilutions of the peptide were prepared that ranged from 0.04 to 40 µM. The following fluorogenic substrates were used at a final concentration of 50 µM: Z-Phe-Arg-AMC (Bachem) for plasma kallikrein; Boc-Phe-Ser-Arg-AMC (Bachem) for factor XIa; Z-Gly-Gly-Arg-AMC (Bachem) for tPA, uPA, thrombin, and trypsin; H-D-Val-Leu-Lys-AMC (Bachem) for plasmin; and D-Phe-Pro-Arg-ANSNH-C4H9 (Haematologic Technologies) for FVIIa and FXa. For APC, the chromogenic substrate pyroGlu-Pro-Arg-pNA (S2366) was used at a concentration of 400 µM. […]

factor VIIa = molecular target: T3, factor VIIa (Homo sapiens, UniProt P08709); assay: Specificity profiling, residual protease activity
T3 construct: (Molecular Innovations) 0.05 nM, factor VIIa (Haematologic Technologies) 50 nM, factor Xa; purchased Haematologic Technologies
T3 sequence (P08709 213-466 limits assumed): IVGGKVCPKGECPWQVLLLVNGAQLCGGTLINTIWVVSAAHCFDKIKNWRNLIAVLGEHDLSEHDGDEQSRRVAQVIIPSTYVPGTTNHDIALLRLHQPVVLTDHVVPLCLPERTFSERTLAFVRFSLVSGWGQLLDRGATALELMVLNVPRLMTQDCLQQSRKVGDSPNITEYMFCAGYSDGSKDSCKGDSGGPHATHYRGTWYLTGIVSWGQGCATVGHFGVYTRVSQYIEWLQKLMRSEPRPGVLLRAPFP
T3 sequence (P08709 61-212 limits assumed): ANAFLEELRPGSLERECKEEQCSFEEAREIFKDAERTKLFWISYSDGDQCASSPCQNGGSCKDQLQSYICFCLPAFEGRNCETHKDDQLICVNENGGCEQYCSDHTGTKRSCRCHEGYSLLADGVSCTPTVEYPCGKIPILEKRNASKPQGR
Protocol: as §1, §2, §3, §4, §5, §6, §7

[1] = inhibitor 40000 nM (40 µM), 40 µM

remaining activity at 0.000390625 µM (Recombinant mouse FXII; Recombinant mouse FXII, peptide 0.390625 nM, read-out: Residual activity (%)): 97.5%
remaining activity at 0.00078125 µM (Recombinant mouse FXII; Recombinant mouse FXII, peptide 0.78125 nM, read-out: Residual activity (%)): 99%
remaining activity at 0.0015625 µM (Recombinant mouse FXII; Recombinant mouse FXII, peptide 1.5625 nM, read-out: Residual activity (%)): 99.1%
remaining activity at 0.003125 µM (Recombinant mouse FXII; Recombinant mouse FXII, peptide 3.125 nM, read-out: Residual activity (%)): 96.3%
remaining activity at 0.00625 µM (Recombinant mouse FXII; Recombinant mouse FXII, peptide 6.25 nM, read-out: Residual activity (%)): 94%
remaining activity at 0.0125 µM (Recombinant mouse FXII; Recombinant mouse FXII, peptide 12.5 nM, read-out: Residual activity (%)): 90.3%
remaining activity at […] (Recombinant mouse FXII; Recombinant mouse FXII, peptide 25 nM, read-out: Residual activity (%)): 81.9%
remaining activity at 0.05 µM (Recombinant mouse FXII; Recombinant mouse FXII, peptide 50 nM, read-out: Residual activity (%)): 69.1%
remaining activity at 0.1 µM (Recombinant mouse FXII; Recombinant mouse FXII, peptide 100 nM, read-out: Residual activity (%)): 53%
remaining activity at 0.2 µM (Recombinant mouse FXII; Recombinant mouse FXII, peptide 200 nM, read-out: Residual activity (%)): 35.9%
remaining activity at 0.4 µM (Recombinant mouse FXII; Recombinant mouse FXII, peptide 400 nM, read-out: Residual activity (%)): 22.6%
Structure (SMILES): CC(C)C[C@@H]1NC(=O)[C@H](CCC(N)=O)NC(=O)[C@H](CCCNC(=N)N)NC(=O)[C@@H]2CSCCC(=O)N3CN(CN(C3)C(=O)CCSC[C@H](NC(=O)[C@@H](N)CCCNC(=N)N)C(=O)N[C@@H](Cc3ccccc3)C(=O)N[C@@H](CCCNC(=N)N)C(=O)N[C@@H](CC(C)C)C(=O)N3CCC[C@H]3C(=O)N2)C(=O)CCSC[C@@H](C(=O)N[C@@H](CCCNC(=N)N)C(N)=O)NC(=O)[C@H](CCCNC(=N)N)NC1=O [FXII618]

Structure (SMILES): CC(C)C[C@@H]1NC(=O)[C@H](CCC(N)=O)NC(=O)[C@H](Cc2c[nH]cn2)NC(=O)[C@@H]2CSCCC(=O)N3CN(CN(C3)C(=O)CCSC[C@H](NC(=O)[C@@H](CO)NC(=O)[C@H](N)CCCNC(=N)N)C(=O)N[C@@H](Cc3ccc(F)cc3)C(=O)N[C@@H](CCCNC(=N)N)C(=O)N[C@@H](CC(C)C)C(=O)N3CCC[C@H]3C(=O)N2)C(=O)CCSC[C@@H](C(N)=O)NC(=O)C[C@H](CCCNC(=N)N)NC1=O [FXII900] (H-[dR][dS]C[Phe(4-F)]RLPCHQL[β3hR]C-NH2; linker 3-8-13 via TATA)
Ki (plasmin): > 40 µM
remaining activity at 0.0390625 µM (plasmin; inhibitor 39.0625 nM): 101%
Residual activity of Plasmin (plasmin; inhibitor 39.0625 nM, 0.0390625 µM): 100% and 98.04%
remaining activity at 0.078125 µM (plasmin; inhibitor 78.125 nM): 99.7%
Residual activity of Plasmin (plasmin; inhibitor 78.125 nM, 0.078125 µM): 92.966% and 98.2808%
remaining activity at 0.15625 µM (plasmin; inhibitor 156.25 nM): 99.4%
Residual activity of Plasmin (plasmin; inhibitor 156.25 nM, 0.15625 µM): 100.413% and 98.2682%
remaining activity at 0.3125 µM (plasmin; inhibitor 312.5 nM): 98.2%
Residual activity of Plasmin (plasmin; inhibitor 312.5 nM, 0.3125 µM): 95.1408% and 95.4545%
remaining activity at 0.625 µM (plasmin; inhibitor 625 nM): 98.8%
Residual activity of Plasmin (plasmin; inhibitor 625 nM, 0.625 µM): 96.2495% and 97.8119%
remaining activity at 1.25 µM (plasmin; inhibitor 1250 nM): 95.1%
Residual activity of Plasmin (plasmin; inhibitor 1250 nM, 1.25 µM): 99.629% and 97.1835%
remaining activity at […] (plasmin; inhibitor 2500 nM): 92%
remaining activity at 5 µM (plasmin; inhibitor 5000 nM): 96%
Residual activity of Plasmin (plasmin; inhibitor 5000 nM, 5 µM): 97.8045% and 97.3192%
remaining activity at 10 µM (plasmin; inhibitor 10000 nM): 93.7%
Residual activity of Plasmin (plasmin; inhibitor 10000 nM, 10 µM): 101.477% and 94.8276%
remaining activity at 20 µM (plasmin; inhibitor 20000 nM): 87.5%
Residual activity of Plasmin (plasmin; inhibitor 20000 nM, 20 µM): 91.7224% and 90.5875%
remaining activity at 40 µM (plasmin; inhibitor 40000 nM (40 µM)): 86 ± 5%
Residual activity of Plasmin (plasmin; [1]): 82.6102% and 91.6986% and 84.2986%
Residual activity of FVIIa (factor VIIa; inhibitor 5000 nM, 5 µM): 109.299%
remaining activity at 5 µM (factor VIIa; inhibitor 5000 nM, read-out: Residual activity of FVIIa): 108%
Residual activity of FVIIa (factor VIIa; inhibitor 10000 nM, 10 µM): 109.026%
remaining activity at 10 µM (factor VIIa; inhibitor 10000 nM, read-out: Residual activity of FVIIa): 107%
Residual activity of FVIIa (factor VIIa; inhibitor 20000 nM, 20 µM): 101.426%
remaining activity at 20 µM (factor VIIa; inhibitor 20000 nM, read-out: Residual activity of FVIIa): 101%
Residual activity of FVIIa (factor VIIa; [1]): 102.615% and 96.13%
remaining activity at 40 µM (factor VIIa; inhibitor 40000 nM (40 µM), read-out: Residual activity of FVIIa): 97.1%
Ki (factor VIIa; read-out: Ki FVIIa): > 40 µM
remaining activity at 30.52 pM (Recombinant mouse FXII; read-out: Residual activity (%), Recombinant mouse FXII, peptide 0.030518 nM): 94.5%
remaining activity at 61.04 pM (Recombinant mouse FXII; read-out: Residual activity (%), Recombinant mouse FXII, peptide 0.061035 nM): 95%
remaining activity at 0.00012207 µM (Recombinant mouse FXII; read-out: Residual activity (%), Recombinant mouse FXII, peptide 0.12207 nM): 85.5%
remaining activity at 0.000244141 µM (Recombinant mouse FXII; read-out: Residual activity (%), Recombinant mouse FXII, peptide 0.244141 nM): 77.6%
remaining activity at 0.000488281 µM (Recombinant mouse FXII; read-out: Residual activity (%), Recombinant mouse FXII, peptide 0.488281 nM): 61.6%
remaining activity at 0.000976563 µM (Recombinant mouse FXII; read-out: Residual activity (%), Recombinant mouse FXII, peptide 0.976563 nM): 37.8%
remaining activity at 0.00195312 µM (Recombinant mouse FXII; read-out: Residual activity (%), Recombinant mouse FXII, peptide 1.95312 nM): 15.3%
remaining activity at 0.0078125 µM (Recombinant mouse FXII; read-out: Residual activity (%), Recombinant mouse FXII, peptide 7.8125 nM): 0.768%
remaining activity at 0.015625 µM (Recombinant mouse FXII; read-out: Residual activity (%), Recombinant mouse FXII, peptide 15.625 nM): 0%
remaining activity at 0.03125 µM (Recombinant mouse FXII; read-out: Residual activity (%), Recombinant mouse FXII, peptide 31.25 nM): 0%
